Measured values: patent publication US6750240B2, “Methods of using bis-indolylquinones” (Sugen, Inc., priority 1997, dated 2004)

How the values were obtained:
[1] = target: HIV-reverse transcriptase (Human immunodeficiency virus type 1 group M subtype B, UniProt P03366); details: cited from earlier work
[2] = tested on: human epidermoid carcinoma (A431, ATCC CRL 1555); assay: In vivo tumor growth of A431 cells implanted into the hindflank of athymic mice; set-up: species or system Female athymic mice (BALB/c, nu/nu)
Protocol: The following example illustrates the use of the compounds of the invention in an in vivo model of tumor growth.
Female athymic mice (BALB/c, nu/nu) were obtained from Simonsen Laboratories (Gilroy, Calif.). All animals were maintained under clean-room conditions in Micro-isolator cages with Alpha-dri bedding. They received sterile rodent chow and water ad libitum. A cell line established from a human epidermoid carcinoma (A431, ATCC CRL 1555) was grown in DMEM with 10% FBS and 2 mM GLN. All cell culture media, glutamine, and fetal bovine serum were purchased from Gibco Life Technologies (Grand Island, N.Y.) unless otherwise specified. All cells were grown in a humid atmosphere of 90-95% air and 5-10% CO2 at 37° C. All cell lines were routinely subcultured twice a week and were negative for mycoplasma as determined by teh Mycotect method (Gibco). Cells were harvested at or near confluency with 0.05% Trypsin-EDTA and pelleted at 450×g for 10 min. Pellets were resuspended in sterile PBS or media (without FBS) to a particular concentration and the cells were implanted into the hindflank of the mice ([…] mice per group). Tumor growth was measured, over 3 to 6 weeks using venier calipers. Tumor volumes were calculated as a product of length×width×height unless otherwise indicated. P values were calculated using the Students' t-test. Compound 1 (from Example 1 and Table I) in 100 μL excipient (VPD:D5W, 1:1 (VPD−12% w/v polysorbate 80, 0.55% citric acid (anhydrous), 35% w/v polyenthlene glycol (MW=300 daltons) and 26.3% v/v 190 proof ethanol diluted 1:22 in 5% dextrose in water (D5W) was delivered by IP injection at different concentrations. Control animals received VPD:D5W alone. Animals were dosed daily on days 1-5 (high dose), days 1-9 (mid-dose) or throughout the study (low dose).
The results are shown below as a percent tumor reduction compared to controls.

Compound | inhibition of HIV-reverse transcriptase [1] | % inhibition (percent tumor reduction compared to controls) ([2]; 2.5 mg/kg/day IP (low dose, dosed daily throughout the study), Day 7, A431 tumor) [%] | % inhibition (percent tumor reduction compared to controls) ([2]; 2.5 mg/kg/day IP (low dose, dosed daily throughout the study), Day 18, A431 tumor) [%] | % inhibition (percent tumor reduction compared to controls) ([2]; 5 mg/kg/day IP (mid-dose, days 1-9), Day 7, A431 tumor) [%] | % inhibition (percent tumor reduction compared to controls) ([2]; 5 mg/kg/day IP (mid-dose, days 1-9), Day 18, A431 tumor) [%] | % inhibition (percent tumor reduction compared to controls) ([2]; 7.5 mg/kg/day IP (high dose, days 1-5), Day 7, A431 tumor) [%] | % inhibition (percent tumor reduction compared to controls) ([2]; 7.5 mg/kg/day IP (high dose, days 1-5), Day 18, A431 tumor) [%] | tumor growth inhibition, dose dependence ([2]; IP, 2.5-7.5 mg/kg/day, A431 tumor in athymic mice) | tumor growth after cessation of treatment ([2]; after cessation of treatment with the compound)
C=CC(C)(C)n1cc(C2=C(O)C(=O)C(c3cn(C(C)(C)C=C)c4ccccc34)=C(O)C2=O)c2ccccc21 [asterriquinone, 2,5-bis[N-(1″,1″-dimethyl-2″-propenyl)indol-3″-yl]-3,6-dihydroxy-1,4-benzoquinone] | strong inhibitors |  |  |  |  |  |  |  | 
CC(C)CCc1[nH]c2ccccc2c1C1=C(O)C(=O)C(c2c(CCC(C)C)[nH]c3ccccc23)=C(O)C1=O [Compound 1, 2,5-Dihydroxy-3,6-di-[2-(3-methyl-n-butyl)indol-3-yl]-1,4-quinone] |  | 11 | 0 | 30 | 38 | 55 | 50 | inhibited tumor growth in a dose dependent manner | remained inhibited even after cessation of treatment
